Experiments:
[1] = tested on: 1bf (DNA, aptamer, artificial imidazole 2'-deoxyribonucleoside (Im) replacing C at 3 and G at 25 (Im:Im mispair)) ACCTGGGGGAGTATTGCGGAGGAAGGT; test: fluorescence, structure-switching strand displacement; conditions: 300 mM Na+, 5 mM Mg2+; 20 mM MOPS pH 7.4, 22 °C; 1 mM AMP; DABCYL strand 1q displaced
[2] = tested on: 1df (DNA, aptamer, artificial imidazole 2'-deoxyribonucleoside (Im) replacing G at 11 and C at 17 (Im:Im mispair)) ACCTGGGGGAGTATTGCGGAGGAAGGT; test: as above; conditions: 300 mM Na+, 5 mM Mg2+; 20 mM MOPS pH 7.4, 22 °C; 1 mM AMP; DABCYL strand 1q displaced
[3] = tested on: 1cf (DNA, aptamer, artificial imidazole 2'-deoxyribonucleoside (Im) replacing T at 4 and A at 24 (Im:Im mispair)) ACCTGGGGGAGTATTGCGGAGGAAGGT; test: as above; conditions: 300 mM Na+, 5 mM Mg2+; 20 mM MOPS pH 7.4, 22 °C; 1 mM AMP; DABCYL strand 1q displaced
[4] = tested on: 1af (DNA, aptamer) ACCTGGGGGAGTATTGCGGAGGAAGGT; test: as above; conditions: 300 mM Na+, 5 mM Mg2+; 20 mM MOPS pH 7.4, 22 °C; 1 mM AMP; DABCYL strand 1q displaced
[5] = tested on: 1a (DNA, aptamer) ACCTGGGGGAGTATTGCGGAGGAAGGT; test: fluorescence, structure-switching strand displacement (system B); conditions: 300 mM Na+, 5 mM Mg2+; 20 mM MOPS pH 8.1, 22 °C; 1 mM AMP; strands 2f (fluorescein) and 2q (DABCYL) displaced
[6] = tested on: 1af (DNA, aptamer) ACCTGGGGGAGTATTGCGGAGGAAGGT; test: elution from ATP-agarose column; conditions: 300 mM Na+, 5 mM Mg2+; 20 mM MOPS pH 7.4; 3 mM GMP; no elution of aptamer from immobilised ATP
[7] = tested on: 1df (DNA, aptamer, artificial imidazole 2'-deoxyribonucleoside (Im) replacing G at 11 and C at 17 (Im:Im mispair)) ACCTGGGGGAGTATTGCGGAGGAAGGT; test: elution from ATP-agarose column; conditions: 300 mM Na+, 5 mM Mg2+; 20 mM MOPS pH 7.4; 3 mM GMP; no elution of aptamer from immobilised ATP
[8] = tested on: 1bf (DNA, aptamer, artificial imidazole 2'-deoxyribonucleoside (Im) replacing C at 3 and G at 25 (Im:Im mispair)) ACCTGGGGGAGTATTGCGGAGGAAGGT; test: elution from ATP-agarose column; conditions: 300 mM Na+, 5 mM Mg2+; 20 mM MOPS pH 7.4; 3 mM GMP; no elution of aptamer from immobilised ATP
[9] = tested on: 1cf (DNA, aptamer, artificial imidazole 2'-deoxyribonucleoside (Im) replacing T at 4 and A at 24 (Im:Im mispair)) ACCTGGGGGAGTATTGCGGAGGAAGGT; test: elution from ATP-agarose column; conditions: 300 mM Na+, 5 mM Mg2+; 20 mM MOPS pH 7.4; 3 mM GMP; no elution of aptamer from immobilised ATP

binding [1] | binding [2] | binding [3] | binding [4] | binding [5] | binding [6] | binding [7] | binding [8] | binding [9] | Compound
yes | weak | yes | yes | yes | – | – | – | – | Nc1ncnc2c1ncn2[C@@H]1O[C@H](COP(=O)(O)O)[C@@H](O)[C@H]1O
– | – | – | – | – | no | no | no | no | Nc1nc2c(ncn2[C@@H]2O[C@H](COP(=O)(O)O)[C@@H](O)[C@H]2O)c(=O)[nH]1

Reference: article PMC7705865 (2020)
